The results in this text go back to patent US12612408B2, “Pyrazolone-fused pyrimidine compound, preparation method for same and applications thereof” (SHANGHAI PHARMACEUTICALS HOLDING CO., LTD., priority 2019, dated 2026).

Read-outs that look alike come from different tables or passages of the source.

The nature of series [1]: Bioavailability test in vivo in mice (pharmacokinetics, iv and intragastric). Further details: species or system ICR mice. The procedure: 404.6 μL of DMSO was added to the compound powder of the present disclosure until the compound was completely dissolved, and 50 mg/mL mother liquor was prepared in a clarified state.
The compound of the present disclosure: 24 μL of mother liquor was accurately measured, diluted to 4 mL according to the ratio of 0.9% normal saline:PEG400=8:2, the preparation concentration was 0.3 mg/mL, the solution was in a clarified state, and it was used as intravenous administration solution. In addition, 80 μL mother liquor was accurately measured, and 0.5% CMC-Na was added to 8 mL to grind it into a uniform suspension with a concentration of 0.5 mg/mL, which was used as intragastric administration solution.
Intravenous group: 24 ICR mice, 20±2 g, were given the intravenous administration solution of the compound of the present disclosure by intravenous injection, with the volume of 10 mL/kg, with the dose of 3 mg/kg, the blood was taken from the fundus venous plexus of mice, 2, 5, 15, 30, 60, 90, 120, 240, 360, 480, 600 and 1440 minutes before and after administration.
Intragastric group: 24 ICR mice, 20±2 g, were given the intragastric administration solution of the compound of the present disclosure by intragastric injection, with the volume of 20 mL/kg, with the dose of 10 mg/kg, the blood was taken from the fundus venous plexus of mice, 5, 15, 30, 60, 90, 120, 240, 360, 480, 600 and 1440 minutes before and after administration.
Blood sample was centrifuged at 8000 rpm for 5 min, and the plasma was stored in a centrifuge tube at −20° C. for later use.
300 μL of acetonitrile containing internal standard (Propranolol, 25 ng/mL) was added to 50 μL of plasma samples to precipitate protein, vortexed for 10 min, 6000 g, 4° C., centrifuged for 10 min; the supernatant before intravenous injection for 1 hour was taken, diluted 10 times with acetonitrile containing internal standard, the rest supernatant was kept undiluted, centrifuged for 10 min again at 6000 g, 4° C., and the supernatant was taken and then injected into a 96-well plate.
Dose; peak concentration: Cmax; peak time: Tmax; area under the drug-time curve from AUClast 0 to time t; half-life: T1/2; mean retention time: MRT; clearance: Cl; apparent distribution volume: Vz; steady-state distributed volume: Vss; absolute bioavailability: F.
The pharmacokinetic parameters of the compound in mice after intravenous injection or intragastric administration were shown in Table 4 and Table 5 below.

Another series concerns the target T1, WEE1 kinase (Homo sapiens, UniProt P30291).
T1 construct: purchased CarnaBiosciences, Inc. 05-177
As to the kind of experiment: Inhibitory effect of compound on WEE1 kinase in vitro (ELISA). In kind it is biochemical. The note with it: ATP concentration of Km. On the technique in general: ELISA stands for enzyme-linked immunosorbent assay.

[2] abbreviates: ICR, mouse, plasma, iv, 3 mg/kg.
[3] abbreviates: ICR, mouse, plasma, po (intragastric), 10 mg/kg.

T1 sequence (P30291 whole entry): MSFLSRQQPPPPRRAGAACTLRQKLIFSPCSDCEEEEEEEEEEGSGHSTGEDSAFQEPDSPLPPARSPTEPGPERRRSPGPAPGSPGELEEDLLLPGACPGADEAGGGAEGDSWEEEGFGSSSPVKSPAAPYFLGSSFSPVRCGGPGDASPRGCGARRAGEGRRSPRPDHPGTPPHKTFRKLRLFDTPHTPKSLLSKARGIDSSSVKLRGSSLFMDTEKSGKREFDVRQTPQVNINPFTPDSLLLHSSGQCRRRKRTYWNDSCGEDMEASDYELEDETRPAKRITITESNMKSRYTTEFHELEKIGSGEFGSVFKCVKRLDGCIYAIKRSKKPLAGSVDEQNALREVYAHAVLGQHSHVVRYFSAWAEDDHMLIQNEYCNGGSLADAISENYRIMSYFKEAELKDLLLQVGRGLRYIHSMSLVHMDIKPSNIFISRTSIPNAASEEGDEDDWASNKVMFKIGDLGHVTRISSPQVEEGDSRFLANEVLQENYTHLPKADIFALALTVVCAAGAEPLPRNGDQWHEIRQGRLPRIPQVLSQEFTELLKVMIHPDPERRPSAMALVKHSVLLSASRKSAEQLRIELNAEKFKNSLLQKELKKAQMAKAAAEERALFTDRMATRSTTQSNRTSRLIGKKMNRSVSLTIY

The Cmax is the peak of the concentration-time curve. The MRT is the average time that molecules of a dose stay in the body. In general, Tmax refers to the time at which the peak concentration occurs. One may read the clearance as the volume of plasma or blood freed of the substance per unit of time. Higher therefore signals efficient removal. The term half-life denotes the time in which the quantity being followed falls by half. High values mean slow decline, low ones rapid decline. In general, bioavailability refers to dose-corrected exposure relative to a reference, in per cent. One may read the IC50 as the concentration that inhibits the measured activity by half. Read a high IC50 as weaker potency in that assay. Take `C=CCn1c(=O)c2cnc(Nc3ccc(C4CCC(N5CCC5)CC4)cc3)nc2n1-c1cccc(C(C)(C)O)n1` (single isomer, unassigned) [Compound I-8-1]: in series [1] (setting [2]), the Cmax is 644 ± 132 ng/mL, the MRT amounted to 1.11 ± 0.08 h, the Tmax came to 1.8 min and the clearance was 155 mL/min/kg. The compound further showed a half-life in series [1] (setting [2]) of 73.2 ± 6 min. The Vd in series [1] (ICR, mouse, plasma, iv, 3 mg/kg, iv, 3 mg/kg, read-out: Vss) turned out to be 10.3 ± 0.86 L/kg. The Vd in series [1] (ICR, mouse, plasma, iv, 3 mg/kg, iv, 3 mg/kg, read-out: Vz) turned out to be 16.3 ± 2.48 L/kg. The bioavailability in series [1] (ICR, mouse, plasma, po 10 mg/kg vs iv 3 mg/kg, read-out: F (absolute bioavailability)) amounted to 60.3%. In series [1] (setting [3]), the highest level (Cmax) was 58.1 ± 7.09 ng/mL, the MRT is 3.47 ± 1.22 h, the Tmax stood at 100 ± 17.4 min and the half-life is 94.2 ± 23.4 min. The AUClast in series [1] (iv, 3 mg/kg) is on record as 317.5 ± 34.41 (h) (ng/mL). Also, the AUClast in series [1] (po (intragastric), 10 mg/kg) was 637.9 ± 302.3 (h) (ng/mL). Moreover, at WEE1 kinase, the IC50 worked out at 1.52 nM.
